The values below come from patent US20230365576A1, “BRM Targeting Compounds And Associated Methods Of Use” (Prelude Therapeutics Incorporated, priority 2022, published 2023).

The target of one experiment is T1, SMARCA4 (Homo sapiens, UniProt P51532).
T1 construct: SMARCA4-HiBiT knock-in Hela monoclonal cell (CS3023226) were purchased from Promega; host or cells: HeLa (CRISPR HiBiT knock-in monoclonal line, heterozygous)
The experiment is described as follows: SMARCA4 HiBiT degradation assay in HeLa cells. It counts as cell-based. To be noted: 18 hours; for Dmax: HeLa. Put shortly:
(§1)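 Degradation measured as HiBiT luminescence (Nano-Glo lytic reagent) after 18 h compound exposure at 37° C. Cells were HeLa clones carrying heterozygous HiBiT tags on SMARCA2 or SMARCA4, 2500 per well; compounds at 3-fold serial dilution from 10 μM.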
Background: HiBiT is a short tag that completes a luciferase, so light tracks the accessible tagged protein.

A further experiment has as its target T2, SMARCA2 (Homo sapiens, UniProt P51531).
T2 construct: SMARCA2-HiBiT knock-in Hela monoclonal cell (CS302366); host or cells: HeLa (CRISPR HiBiT knock-in monoclonal line, heterozygous)
The experiment is described as follows: SMARCA2 HiBiT degradation assay in HeLa cells. The experiment is classed as cell-based. To be noted: 18 hours; for DC50: read-out: SMARCA2 IC50; for Dmax: HeLa. Put shortly: as §1

T1 sequence (P51532 whole entry): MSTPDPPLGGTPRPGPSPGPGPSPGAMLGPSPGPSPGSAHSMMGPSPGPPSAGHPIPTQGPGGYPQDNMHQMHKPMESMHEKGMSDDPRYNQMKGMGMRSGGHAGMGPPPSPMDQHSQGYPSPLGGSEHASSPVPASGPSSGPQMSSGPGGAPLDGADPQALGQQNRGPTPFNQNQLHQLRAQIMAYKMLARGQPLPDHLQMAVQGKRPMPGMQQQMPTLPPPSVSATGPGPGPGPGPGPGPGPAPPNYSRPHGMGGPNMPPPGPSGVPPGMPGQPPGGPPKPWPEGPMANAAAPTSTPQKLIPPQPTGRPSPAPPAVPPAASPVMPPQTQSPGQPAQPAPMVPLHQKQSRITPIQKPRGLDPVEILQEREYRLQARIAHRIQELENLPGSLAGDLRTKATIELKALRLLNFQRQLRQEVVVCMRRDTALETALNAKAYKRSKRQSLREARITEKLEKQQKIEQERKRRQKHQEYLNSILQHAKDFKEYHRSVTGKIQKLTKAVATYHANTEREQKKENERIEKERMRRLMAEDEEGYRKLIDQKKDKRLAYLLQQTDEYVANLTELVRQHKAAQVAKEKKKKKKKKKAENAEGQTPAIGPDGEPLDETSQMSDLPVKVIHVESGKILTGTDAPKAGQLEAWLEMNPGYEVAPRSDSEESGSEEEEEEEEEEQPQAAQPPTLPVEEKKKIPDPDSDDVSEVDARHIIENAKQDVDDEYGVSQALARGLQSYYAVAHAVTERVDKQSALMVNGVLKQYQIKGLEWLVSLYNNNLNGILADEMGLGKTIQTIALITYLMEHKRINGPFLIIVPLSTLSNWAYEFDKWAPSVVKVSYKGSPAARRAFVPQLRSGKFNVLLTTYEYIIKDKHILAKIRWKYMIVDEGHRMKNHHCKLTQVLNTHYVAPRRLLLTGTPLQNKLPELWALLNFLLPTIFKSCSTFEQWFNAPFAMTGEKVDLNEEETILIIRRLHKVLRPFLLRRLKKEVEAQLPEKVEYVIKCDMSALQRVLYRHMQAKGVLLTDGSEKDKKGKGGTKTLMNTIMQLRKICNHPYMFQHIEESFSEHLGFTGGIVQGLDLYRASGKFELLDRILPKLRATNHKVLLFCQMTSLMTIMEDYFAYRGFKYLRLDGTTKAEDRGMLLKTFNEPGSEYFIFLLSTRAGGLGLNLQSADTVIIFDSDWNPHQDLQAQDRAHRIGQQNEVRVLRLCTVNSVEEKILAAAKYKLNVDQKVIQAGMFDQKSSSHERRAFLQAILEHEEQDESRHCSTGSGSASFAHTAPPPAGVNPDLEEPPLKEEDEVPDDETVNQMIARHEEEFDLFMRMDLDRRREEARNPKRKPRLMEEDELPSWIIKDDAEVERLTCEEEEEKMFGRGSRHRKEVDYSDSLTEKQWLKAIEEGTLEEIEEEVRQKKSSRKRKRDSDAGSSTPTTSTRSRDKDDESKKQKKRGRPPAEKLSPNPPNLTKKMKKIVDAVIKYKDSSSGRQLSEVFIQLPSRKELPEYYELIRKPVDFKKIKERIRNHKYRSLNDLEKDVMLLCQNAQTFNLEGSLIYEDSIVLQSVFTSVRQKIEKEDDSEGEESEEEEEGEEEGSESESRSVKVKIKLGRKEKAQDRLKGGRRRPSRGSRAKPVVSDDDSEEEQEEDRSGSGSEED
T2 sequence (P51531 whole entry): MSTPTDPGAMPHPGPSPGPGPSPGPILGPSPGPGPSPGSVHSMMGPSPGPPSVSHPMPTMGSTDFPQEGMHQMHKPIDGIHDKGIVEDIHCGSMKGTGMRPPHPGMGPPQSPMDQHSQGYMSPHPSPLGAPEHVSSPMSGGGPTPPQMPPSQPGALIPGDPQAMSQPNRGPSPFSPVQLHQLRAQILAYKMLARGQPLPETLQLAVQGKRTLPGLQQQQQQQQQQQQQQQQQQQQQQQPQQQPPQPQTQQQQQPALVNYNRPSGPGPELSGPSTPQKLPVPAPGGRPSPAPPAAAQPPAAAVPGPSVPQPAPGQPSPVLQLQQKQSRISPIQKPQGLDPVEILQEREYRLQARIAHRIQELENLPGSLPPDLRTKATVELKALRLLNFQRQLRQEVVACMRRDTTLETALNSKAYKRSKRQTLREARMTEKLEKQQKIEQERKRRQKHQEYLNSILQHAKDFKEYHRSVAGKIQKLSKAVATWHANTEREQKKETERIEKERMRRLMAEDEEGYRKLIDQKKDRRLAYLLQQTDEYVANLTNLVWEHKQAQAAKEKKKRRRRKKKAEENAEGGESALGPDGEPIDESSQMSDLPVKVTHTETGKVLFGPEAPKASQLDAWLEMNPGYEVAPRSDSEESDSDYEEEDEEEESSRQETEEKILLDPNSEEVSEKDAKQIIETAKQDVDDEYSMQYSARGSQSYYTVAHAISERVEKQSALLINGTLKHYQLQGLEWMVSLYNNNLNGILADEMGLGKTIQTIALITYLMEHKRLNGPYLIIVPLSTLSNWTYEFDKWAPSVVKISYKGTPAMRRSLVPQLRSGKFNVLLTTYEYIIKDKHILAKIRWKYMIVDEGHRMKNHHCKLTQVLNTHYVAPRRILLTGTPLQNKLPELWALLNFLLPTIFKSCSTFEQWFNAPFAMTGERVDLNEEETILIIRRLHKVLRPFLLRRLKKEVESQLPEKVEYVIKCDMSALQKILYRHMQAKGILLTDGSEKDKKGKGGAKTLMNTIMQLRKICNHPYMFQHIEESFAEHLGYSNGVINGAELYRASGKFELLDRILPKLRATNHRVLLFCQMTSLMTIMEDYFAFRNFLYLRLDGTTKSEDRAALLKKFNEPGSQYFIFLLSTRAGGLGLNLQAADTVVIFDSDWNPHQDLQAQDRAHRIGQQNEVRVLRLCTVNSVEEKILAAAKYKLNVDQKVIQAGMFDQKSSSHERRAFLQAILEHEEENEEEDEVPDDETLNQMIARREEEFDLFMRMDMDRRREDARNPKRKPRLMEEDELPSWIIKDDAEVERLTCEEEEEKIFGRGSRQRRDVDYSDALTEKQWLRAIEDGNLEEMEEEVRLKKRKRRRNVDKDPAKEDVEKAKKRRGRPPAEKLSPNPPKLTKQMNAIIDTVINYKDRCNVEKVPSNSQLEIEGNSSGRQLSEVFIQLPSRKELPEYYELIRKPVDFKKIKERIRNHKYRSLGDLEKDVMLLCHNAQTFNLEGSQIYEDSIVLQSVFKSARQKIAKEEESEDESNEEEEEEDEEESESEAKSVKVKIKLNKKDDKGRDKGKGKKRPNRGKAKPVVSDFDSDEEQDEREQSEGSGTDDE

Broadly, the Dmax is the largest share of the target that was removed. Read a high Dmax as deep degradation. For the compound `C[C@@H]1CN(CC2CN(c3ccc4c(c3)C(=O)N(C3CCC(=O)NC3=O)C4)C2)C[C@H](C)N1C(=O)N1CCN2c3cc(-c4cc(F)cc(F)c4O)nnc3NC[C@H]2C1` (stereo partly drawn) [Example 20, 3-(6-(3-(((3R,5S)-4-((S)-2-(3,5-difluoro-2-hydroxyphenyl)-6,6a,7,8,9,10-hexahydro-5H-pyrazino[1′,2′:4,5]pyrazino[2,3-c]pyridazine-8-carbonyl)-3,5-dimethylpiperazin-1-yl)methyl)azetidin-1-yl)-1-oxoisoindolin-2-yl)piperidine-2,6-dione], at SMARCA4, the DC50 is less than 100 nM and the Dmax is less than 50%. Moreover, at SMARCA2, the DC50 was less than 100 nM and the Dmax was greater than 75%.
At SMARCA4, `C[C@@H]1CN(C[C@H]2CN(c3ccc4c(c3)CN(C3CCC(=O)NC3=O)C4=O)CCO2)C[C@H](C)N1C(=O)N1CCN2c3cc(-c4cc(F)cc(F)c4O)nnc3NC[C@H]2C1` (stereo partly drawn) [Example 21, 3-(5-((S)-2-(((3R,5S)-4-((S)-2-(3,5-difluoro-2-hydroxyphenyl)-6,6a,7,8,9,10-hexahydro-5H-pyrazino[1′,2′:4,5]pyrazino[2,3-c]pyridazine-8-carbonyl)-3,5-dimethylpiperazin-1-yl)methyl)morpholino)-1-oxoisoindolin-2-yl)piperidine-2,6-dione] gave a DC50 of less than 100 nM and a Dmax of less than 50%. Further, at SMARCA2, the DC50 is less than 100 nM and the maximal degradation (Dmax) was greater than 75%.
With `CC1(C)CN(CC2CCN(c3ccc4c(c3)C(=O)N(C3CCC(=O)NC3=O)C4)CC2)CCN1C(=O)N1CCN2c3cc(-c4cc(F)cc(F)c4O)nnc3NC[C@H]2C1` (stereo partly drawn) [Example 22, 3-(6-(4-((4-((S)-2-(3,5-difluoro-2-hydroxyphenyl)-6,6a,7,8,9,10-hexahydro-5H-pyrazino[1′,2′:4,5]pyrazino[2,3-c]pyridazine-8-carbonyl)-3,3-dimethylpiperazin-1-yl)methyl)piperidin-1-yl)-1-oxoisoindolin-2-yl)piperidine-2,6-dione], at SMARCA4, the DC50 was less than 100 nM and the Dmax was in the range of 50 to 75%. In addition, on SMARCA2, the DC50 was less than 100 nM and the Dmax was greater than 75%.
For the compound `CC1(C)CN(CC2CN(c3ccc4c(c3)C(=O)N(C3CCC(=O)NC3=O)C4)C2)CCN1C(=O)N1CCN2c3cc(-c4cc(F)cc(F)c4O)nnc3NC[C@H]2C1` (stereo partly drawn) [Example 23, 3-(6-(3-((4-((S)-2-(3,5-difluoro-2-hydroxyphenyl)-6,6a,7,8,9,10-hexahydro-5H-pyrazino[1′,2′:4,5]pyrazino[2,3-c]pyridazine-8-carbonyl)-3,3-dimethylpiperazin-1-yl)methyl)azetidin-1-yl)-1-oxoisoindolin-2-yl)piperidine-2,6-dione], on SMARCA4, the DC50 was less than 100 nM and the Dmax was less than 50%. Moreover, on SMARCA2, the DC50 was less than 100 nM and the Dmax is greater than 75%.
On SMARCA4, `C[C@@H]1CN(CC2CN(c3ccc4c(c3)C(=O)N(C3CCC(=O)NC3=O)C4)C2)C[C@H](C)N1C(=O)N1C[C@@H]2CNc3nnc(-c4cc(F)cc(F)c4O)cc3N2C[C@@H]1C` (stereo partly drawn) [Example 24, 3-(6-(3-(((3S,5R)-4-((6aS,9S)-2-(3,5-difluoro-2-hydroxyphenyl)-9-methyl-6,6a,7,8,9,10-hexahydro-5H-pyrazino[1′,2′:4,5]pyrazino[2,3-c]pyridazine-8-carbonyl)-3,5-dimethylpiperazin-1-yl)methyl)azetidin-1-yl)-1-oxoisoindolin-2-yl)piperidine-2,6-dione] displayed a DC50 greater than 1000 nM and a Dmax of less than 50%. Further, at SMARCA2, the DC50 was less than 100 nM and the Dmax is greater than 75%.
The corresponding values for `C[C@H]1CN2c3cc(-c4cc(F)cc(F)c4O)nnc3NC[C@H]2CN1C(=O)N1CCN(CC2CCN(c3ccc4c(c3)C(=O)N(C3CCC(=O)NC3=O)C4)CC2)CC1(C)C` (stereo partly drawn) [Example 25, 3-(6-(4-((4-((6aS,9S)-2-(3,5-difluoro-2-hydroxyphenyl)-9-methyl-6,6a,7,8,9,10-hexahydro-5H-pyrazino[1′,2′:4,5]pyrazino[2,3-c]pyridazine-8-carbonyl)-3,3-dimethylpiperazin-1-yl)methyl)piperidin-1-yl)-1-oxoisoindolin-2-yl)piperidine-2,6-dione] are less than 100 nM, less than 50%, less than 100 nM and greater than 75%.
On SMARCA4, `C[C@@H]1CN(CC2CCN(c3ccc4c(c3)C(=O)N(C3CCC(=O)NC3=O)C4)CC2)C[C@H](C)N1C(=O)N1CCN2c3cc(-c4cc(F)cc(F)c4O)nnc3NCC2(C)C1` (stereo partly drawn) [Example 26, 3-(6-(4-(((3S,5R)-4-(2-(3,5-difluoro-2-hydroxyphenyl)-6a-methyl-6,6a,7,8,9,10-hexahydro-5H-pyrazino[1′,2′:4,5]pyrazino[2,3-c]pyridazine-8-carbonyl)-3,5-dimethylpiperazin-1-yl)methyl)piperidin-1-yl)-1-oxoisoindolin-2-yl)piperidine-2,6-dione] gave a DC50 of less than 100 nM and a Dmax greater than 75%. Besides, at SMARCA2, the DC50 was less than 100 nM and the maximal degradation (Dmax) was greater than 75%.
On to `C[C@@H]1CN(CC2CCN(c3ccc4c(c3)C(=O)N(C3CCC(=O)NC3=O)C4)CC2)C[C@H](C)N1C(=O)N1CCN2c3cc(-c4cccc(Cl)c4O)nnc3NCC2(C)C1` (stereo partly drawn) [Example 30, 3-(6-(4-(((3R,5S)-4-(2-(3-chloro-2-hydroxyphenyl)-6a-methyl-6,6a,7,8,9,10-hexahydro-5H-pyrazino[1′,2′:4,5]pyrazino[2,3-c]pyridazine-8-carbonyl)-3,5-dimethylpiperazin-1-yl)methyl)piperidin-1-yl)-1-oxoisoindolin-2-yl)piperidine-2,6-dione], for which the DC50 at SMARCA4 and on SMARCA2 was less than 100 nM each time. Further, the Dmax on SMARCA4 is 50 to 75%; on SMARCA2 it was greater than 75%.
As to `C[C@@H]1CN(CC2CCN(c3ccc4c(c3)C(=O)N(C3CCC(=O)NC3=O)C4)CC2)C[C@@H](C)N1C(=O)N1CCN2c3cc(-c4cc(F)cc(F)c4O)nnc3NCC2(C)C1` (stereo partly drawn) [Example 33, 3-(6-(4-(((3R,5R)-4-(2-(3,5-difluoro-2-hydroxyphenyl)-6a-methyl-6,6a,7,8,9,10-hexahydro-5H-pyrazino[1′,2′:4,5]pyrazino[2,3-c]pyridazine-8-carbonyl)-3,5-dimethylpiperazin-1-yl)methyl)piperidin-1-yl)-1-oxoisoindolin-2-yl)piperidine-2,6-dione], on SMARCA4, the DC50 is less than 100 nM and the Dmax was greater than 75%. In addition, at SMARCA2, the DC50 is less than 100 nM and the Dmax is greater than 75%.
Turning to `C[C@@H]1CN(CC2CCN(c3ccc4c(c3)C(=O)N(C3CCC(=O)NC3=O)C4=O)CC2)C[C@H](C)N1C(=O)N1CCN2c3cc(-c4cc(F)cc(F)c4O)nnc3NCC2(C)C1` (stereo partly drawn) [Example 36, 5-(4-(((3S,5R)-4-(2-(3,5-difluoro-2-hydroxyphenyl)-6a-methyl-6,6a,7,8,9,10-hexahydro-5H-pyrazino[1′,2′:4,5]pyrazino[2,3-c]pyridazine-8-carbonyl)-3,5-dimethylpiperazin-1-yl)methyl)piperidin-1-yl)-2-(2,6-dioxopiperidin-3-yl)isoindoline-1,3-dione], the DC50 on SMARCA4 and at SMARCA2 was less than 100 nM each time. Further, the Dmax at SMARCA4 and on SMARCA2 was greater than 75% each time.
For the compound `C[C@@H]1CN(CC2CCN(c3ccc4c(c3)C(=O)N(C3CCC(=O)NC3=O)C4)CC2)C[C@@H](C)N1C(=O)N1CCN2c3cc(-c4cc(F)cc(F)c4O)nnc3NC[C@H]2C1` (stereo partly drawn) [Example 45, 3-(6-(4-(((3R,5R)-4-((S)-2-(3,5-difluoro-2-hydroxyphenyl)-6,6a,7,8,9,10-hexahydro-5H-pyrazino[1′,2′:4,5]pyrazino[2,3-c]pyridazine-8-carbonyl)-3,5-dimethylpiperazin-1-yl)methyl)piperidin-1-yl)-1-oxoisoindolin-2-yl)piperidine-2,6-dione], on SMARCA4, the DC50 is less than 100 nM and the Dmax is less than 50%. At SMARCA2, the DC50 is less than 100 nM and the Dmax was greater than 75%.
On SMARCA4, `C[C@@H]1CN(C[C@H]2CN(c3ccc4c(c3)CN(C3CCC(=O)NC3=O)C4=O)CCO2)C[C@@H](C)N1C(=O)N1CCN2c3cc(-c4cc(F)cc(F)c4O)nnc3NC[C@H]2C1` (stereo partly drawn) [Example 46, 3-(5-((S)-2-(((3R,5R)-4-((S)-2-(3,5-difluoro-2-hydroxyphenyl)-6,6a,7,8,9,10-hexahydro-5H-pyrazino[1′,2′:4,5]pyrazino[2,3-c]pyridazine-8-carbonyl)-3,5-dimethylpiperazin-1-yl)methyl)morpholino)-1-oxoisoindolin-2-yl)piperidine-2,6-dione] came in with a DC50 of less than 100 nM and a Dmax of less than 50%. Further, on SMARCA2, the DC50 was less than 100 nM and the Dmax is greater than 75%.
In the case of `C[C@H]1CN(CC2CCN(c3ccc4c(c3)C(=O)N(C3CCC(=O)NC3=O)C4)CC2)C[C@H](C)N1C(=O)N1CCN2c3cc(-c4cc(F)cc(F)c4O)nnc3NC[C@H]2C1` (stereo partly drawn) [Example 47, 3-(6-(4-(((3S,5S)-4-((S)-2-(3,5-difluoro-2-hydroxyphenyl)-6,6a,7,8,9,10-hexahydro-5H-pyrazino[1′,2′:4,5]pyrazino[2,3-c]pyridazine-8-carbonyl)-3,5-dimethylpiperazin-1-yl)methyl)piperidin-1-yl)-1-oxoisoindolin-2-yl)piperidine-2,6-dione], the DC50 at SMARCA4 and on SMARCA2 was less than 100 nM in each case. Also, the Dmax at SMARCA4 is 50 to 75%; at SMARCA2 it was greater than 75%.
